For this assay, the system named is Mus musculus. Nature of the assay: Antiinflammatory activity in topically dosed CD1 mouse assessed as inhibition of PMA-induced ear edema at 0.5 mg/ear. The format is functional.

A word on the Inhibition: it is the drop in the measured response relative to a control, in per cent. Take `CC[C@H]1OC(=O)[C@H](C)[C@@H](O[C@H]2C[C@@](C)(OC)[C@@H](O)[C@H](C)O2)[C@H](C)[C@@H](O[C@H]2O[C@@H](C)C[C@@H](N(C)C(=O)CNCCN(C)C)[C@@H]2O)[C@](C)(O)C[C@@H](C)[C@H](O)[C@H](C)[C@@H](O)[C@]1(C)O`: the Inhibition came to 31%. To `CC[C@H]1OC(=O)[C@H](C)[C@@H](O[C@H]2C[C@@](C)(OC)[C@@H](O)[C@H](C)O2)[C@H](C)[C@@H](O[C@H]2O[C@@H](C)C[C@@H](N(C)CCCNCc3nccs3)[C@@H]2O)[C@](C)(O)C[C@@H](C)[C@H](O)[C@H](C)[C@@H](O)[C@]1(C)O` belongs 74%; to `CC[C@H]1OC(=O)[C@H](C)[C@@H](O[C@H]2C[C@@](C)(OC)[C@@H](O)[C@H](C)O2)[C@H](C)[C@@H](O[C@H]2O[C@@H](C)C[C@@H](N(C)C(=O)CNCCC(C)C)[C@@H]2O)[C@](C)(O)C[C@@H](C)[C@H](O)[C@H](C)[C@@H](O)[C@]1(C)O`, 18%; to `CC[C@H]1OC(=O)[C@H](C)[C@@H](O[C@H]2C[C@@](C)(OC)[C@@H](O)[C@H](C)O2)[C@H](C)[C@@H](O[C@H]2O[C@@H](C)C[C@@H](NCCNCCNCc3nccs3)[C@@H]2O)[C@](C)(O)C[C@@H](C)[C@H](O)[C@H](C)[C@@H](O)[C@]1(C)O`, 43%. Regarding `CC[C@H]1OC(=O)[C@H](C)[C@@H](O[C@H]2C[C@@](C)(OC)[C@@H](O)[C@H](C)O2)[C@H](C)[C@@H](O[C@@H]2O[C@H](C)C[C@H](N(C)C)[C@H]2O)[C@](C)(O)C[C@@H](C)C(=O)[C@H](C)[C@@H](O)[C@]1(C)O` [ERYTHROMYCIN], the Inhibition stood at 42%. To `CC[C@H]1OC(=O)[C@H](C)[C@@H](O[C@H]2C[C@@](C)(OC)[C@@H](O)[C@H](C)O2)[C@H](C)[C@@H](O[C@H]2O[C@@H](C)C[C@@H](N(C)C(C)=O)[C@@H]2O)[C@](C)(O)C[C@@H](C)[C@H](O)[C@H](C)[C@@H](O)[C@]1(C)O` belongs 79%. To `CC[C@H]1OC(=O)[C@H](C)[C@@H](O)[C@H](C)[C@@H](O[C@H]2O[C@@H](C)C[C@@H](N(C)CCCNCc3nccs3)[C@@H]2O)[C@](C)(O)C[C@@H](C)[C@H](O)[C@H](C)[C@@H](O)[C@]1(C)O` belongs 53%.

For the compound `CC[C@H]1OC(=O)[C@H](C)[C@@H](O[C@H]2C[C@@](C)(OC)[C@@H](O)[C@H](C)O2)[C@H](C)[C@@H](O[C@H]2O[C@@H](C)C[C@@H](N(C)Cc3ccccc3)[C@@H]2O)[C@](C)(O)C[C@@H](C)[C@H](O)[C@H](C)[C@@H](O)[C@]1(C)O`, the Inhibition is on record as 58%. The figure for `CC[C@H]1OC(=O)[C@H](C)[C@@H](O[C@H]2C[C@@](C)(OC)[C@@H](O)[C@H](C)O2)[C@H](C)[C@@H](O[C@H]2O[C@@H](C)C[C@@H](N(C)C(=O)CNCc3ccccc3)[C@@H]2O)[C@](C)(O)C[C@@H](C)[C@H](O)[C@H](C)[C@@H](O)[C@]1(C)O` is 71%; for `CC[C@H]1OC(=O)[C@H](C)[C@@H](O)[C@H](C)[C@@H](O[C@H]2O[C@@H](C)C[C@@H](N(C)C(C)=O)[C@@H]2O)[C@](C)(O)C[C@@H](C)[C@H](O)[C@H](C)[C@@H](O)[C@]1(C)O` it is 66%; for `CC[C@H]1OC(=O)[C@H](C)[C@@H](O[C@H]2C[C@@](C)(OC)[C@@H](O)[C@H](C)O2)[C@H](C)[C@@H](O[C@H]2O[C@@H](C)C[C@@H](N(C)C(=O)CNCCNCc3ccccc3)[C@@H]2O)[C@](C)(O)C[C@@H](C)[C@H](O)[C@H](C)[C@@H](O)[C@]1(C)O` it is 87%. For the compound `CC[C@H]1OC(=O)[C@H](C)[C@@H](O)[C@H](C)[C@@H](O[C@H]2O[C@@H](C)C[C@@H](NCCNCCNCc3nccs3)[C@@H]2O)[C@](C)(O)C[C@@H](C)[C@H](O)[C@H](C)[C@@H](O)[C@]1(C)O`, the Inhibition came out at 45%.
